{"source": "patent US8765684B2", "about": "“Solid materials of {[(2S,5R,8S,11S)-5-benzyl-11-(3-guanidino-propyl)-8-isopropyl-7-methyl-3,6,9,12,15-pentaoxo-1,4,7,10,13-pentaaza-cyclopentadec-2-yl]-acetic acid} and methods for obtaining them” (Merck Patent GmbH, priority 2009, dated 2014)", "key": {"[1]": {"assay": "Competitive slurry conversion of pseudopolymorphic form and form A1 (1:1) in Water/Methanol and Water/Ethanol mixtures", "assay_type": "physicochemical", "conditions": "1:1 pseudopolymorphic form + A1", "method": "b) Additionally, crystalline tetrasolvates according invention and especially crystalline forms S1 and S2 can be manufactured by competitive slurry conversion experiments with a mixture of a pseudopolymorphic form (for example S1, S2, S3 or mixtures of these) with form A1 (1:1) in Water/Methanol and Water/Ethanol mixtures with different alcohol contents at different temperatures, respectively.\nApprox. 20 mg of a pseudopolymorphic form (for example S1, S2, S3 or mixtures of these) and 20 mg of form A1 of Cilengitide are dispersed in 300 μl Water/alcohol mixture at 0° C. or room temperature (25° C.). The dispersion is stirred for 24 h and additionally for 3 weeks at RT (25° C.) (long-term experiment) by a magnetic stirrer and finally filtered\nApprox. 20 mg of a pseudopolymorphic form (for example S1, S2, S3 or mixtures of these) and 20 mg of form A1 of Cilengitide are dispersed in 300 μl Water/alcohol mixture at 50° C. The dispersion is stirred for 24 h by a magnetic stirrer and finally filtered.\nAdditionally form A1 can be manufactured by competitive slurry conversion experiments with a mixture of a pseudopolymorphic form (for example S1, S2, S3 or mixtures of these) and form A1 (1:1) in Water/Methanol and Water/Ethanol mixtures with different alcohol contents at different temperatures. In the following table the conditions for the experiments leading to the pure form A1 are listed.\nApprox. 20 mg of a pseudopolymorphic form (for example S1, S2, S3 or mixtures of these) and 20 mg of form A1 of Cilengitide are dispersed in 300 μl Water/alcohol mixture at 0° C., room temperature and 50° C. The dispersion is stirred for 24 h and additionally for 3 weeks at RT (25° C.) (long-term experiment) by a magnetic stirrer and finally filtered."}, "[2]": {"assay": "Conditioning of amorphous Cilengitide under mixed water-ethanol atmospheres (stoichiometry by KF, HS-GC, NMR)", "assay_type": "physicochemical", "source_text": "Stoichiometries as determined by Karl-Fischer titration (KF) for quantification of water and head space gas-chromatography (HS-GC) (and nuclear magnetic resonance spectroscopy (NMR)) for quantification of ethanol are depicted in Table 3. In the table also points representing stochiometries with more than 4 molecules of water per molecule of Cilengitide are visible. As there is no space for more than 4 molecules of water in the crystal lattice excess amounts of more than 4 molecules of water represent adsorbed moisture.\nAlso the modifications and the lattice parameters from indexing of the diffractograms are compiled in Table 3."}, "[3]": {"conditions": "per 1 mol Cil, EtOH liquid phase 10 v %"}, "[4]": {"conditions": "per 1 mol Cil, EtOH liquid phase 20 v %"}, "[5]": {"conditions": "per 1 mol Cil, EtOH liquid phase 50 v %"}, "[6]": {"conditions": "per 1 mol Cil, EtOH liquid phase 70 v %"}, "[7]": {"conditions": "per 1 mol Cil, EtOH liquid phase 80 v %"}, "[8]": {"conditions": "per 1 mol Cil, EtOH liquid phase 85 v %"}, "[9]": {"conditions": "per 1 mol Cil, EtOH liquid phase 90 v %"}, "[10]": {"conditions": "per 1 mol Cil, EtOH liquid phase 95 v %"}, "[11]": {"conditions": "per 1 mol Cil, EtOH liquid phase 100 v %"}}, "note": "“And” between values parts separate entries of the source, which are not always exact repeats. Identical values can stand only once."}
{"substance": "cyclo-(Arg-Gly-Asp-DPhe-NMe-Val) [crystalline form S2]", "values": [{"measurement": "Ethanol in the mixture with Water leading to form S2", "setting": "[1]; 0° C. for 1 day", "value": "20-80 v %"}, {"measurement": "Ethanol in the mixture with Water leading to form S2", "setting": "[1]; RT for 3 weeks", "value": "40-70 v %"}, {"measurement": "Ethanol in the mixture with Water leading to form S2", "setting": "[1]; RT for 1 day", "value": "40-80 v %"}, {"measurement": "EtOH HS-GC", "setting": "[2]; EtOH liquid phase 10 v %", "value": 3.2, "unit": "wt %"}, {"measurement": "H2O KF", "setting": "[2]; EtOH liquid phase 10 v %", "value": 9.5, "unit": "wt %"}, {"measurement": "Σ TG", "setting": "[2]; EtOH liquid phase 10 v %", "value": 12.5, "unit": "wt %"}, {"measurement": "EtOH HS-GC", "setting": "[2]; EtOH liquid phase 20 v %", "value": 4.3, "unit": "wt %"}, {"measurement": "H2O KF", "setting": "[2]; EtOH liquid phase 20 v %", "value": 8.4, "unit": "wt %"}, {"measurement": "Σ TG", "setting": "[2]; EtOH liquid phase 20 v %", "value": 13.0, "unit": "wt %"}, {"measurement": "EtOH HS-GC", "setting": "[2]; EtOH liquid phase 50 v %", "value": "6.9 wt % and 6.2 wt %"}, {"measurement": "H2O KF", "setting": "[2]; EtOH liquid phase 50 v %", "value": "7.8 wt % and 6.8 wt %"}, {"measurement": "Σ TG", "setting": "[2]; EtOH liquid phase 50 v %", "value": "13.7 wt % and 12.6 wt %"}, {"measurement": "EtOH HS-GC", "setting": "[2]; EtOH liquid phase 70 v %", "value": 6.4, "unit": "wt %"}, {"measurement": "H2O KF", "setting": "[2]; EtOH liquid phase 70 v %", "value": 6.2, "unit": "wt %"}, {"measurement": "Σ TG", "setting": "[2]; EtOH liquid phase 70 v %", "value": 12.4, "unit": "wt %"}, {"measurement": "EtOH HS-GC", "setting": "[2]; EtOH liquid phase 80 v %", "value": 6.7, "unit": "wt %"}, {"measurement": "H2O KF", "setting": "[2]; EtOH liquid phase 80 v %", "value": 5.9, "unit": "wt %"}, {"measurement": "Σ TG", "setting": "[2]; EtOH liquid phase 80 v %", "value": 12.8, "unit": "wt %"}, {"measurement": "EtOH HS-GC", "setting": "[2]; EtOH liquid phase 85 v %", "value": 9.1, "unit": "wt %"}, {"measurement": "H2O KF", "setting": "[2]; EtOH liquid phase 85 v %", "value": 4.1, "unit": "wt %"}, {"measurement": "Σ TG", "setting": "[2]; EtOH liquid phase 85 v %", "value": 12.9, "unit": "wt %"}, {"measurement": "EtOH HS-GC", "setting": "[2]; EtOH liquid phase 90 v %", "value": 12.5, "unit": "wt %"}, {"measurement": "H2O KF", "setting": "[2]; EtOH liquid phase 90 v %", "value": "1.7 wt % and 1.2 wt %"}, {"measurement": "Σ TG", "setting": "[2]; EtOH liquid phase 90 v %", "value": "13.8 wt % and 13.6 wt %"}, {"measurement": "EtOH HS-GC", "setting": "[2]; EtOH liquid phase 95 v %", "value": 13.1, "unit": "wt %"}, {"measurement": "H2O KF", "setting": "[2]; EtOH liquid phase 95 v %", "value": 0.4, "unit": "wt %"}, {"measurement": "Σ TG", "setting": "[2]; EtOH liquid phase 95 v %", "value": 13.7, "unit": "wt %"}, {"measurement": "EtOH HS-GC", "setting": "[2]; EtOH liquid phase 100 v %", "value": 13.6, "unit": "wt %"}, {"measurement": "H2O KF", "setting": "[2]; EtOH liquid phase 100 v %", "value": 0.7, "unit": "wt %"}, {"measurement": "Σ TG", "setting": "[2]; EtOH liquid phase 100 v %", "value": 14.0, "unit": "wt %"}, {"measurement": "EtOH HS-GC", "setting": "[2]; [3]", "value": 0.5, "unit": "mol"}, {"measurement": "EtOH NMR", "setting": "[2]; [3]", "value": 0.5, "unit": "mol"}, {"measurement": "H2O KF", "setting": "[2]; [3]", "value": 3.6, "unit": "mol"}, {"measurement": "EtOH HS-GC", "setting": "[2]; [4]", "value": 0.6, "unit": "mol"}, {"measurement": "EtOH NMR", "setting": "[2]; [4]", "value": 0.7, "unit": "mol"}, {"measurement": "H2O KF", "setting": "[2]; [4]", "value": 3.1, "unit": "mol"}, {"measurement": "EtOH HS-GC", "setting": "[2]; [5]", "value": "1.0 mol and 0.9 mol"}, {"measurement": "EtOH NMR", "setting": "[2]; [5]", "value": 1.0, "unit": "mol"}, {"measurement": "H2O KF", "setting": "[2]; [5]", "value": "3.0 mol and 2.5 mol"}, {"measurement": "EtOH HS-GC", "setting": "[2]; [6]", "value": 0.9, "unit": "mol"}, {"measurement": "H2O KF", "setting": "[2]; [6]", "value": 2.3, "unit": "mol"}, {"measurement": "EtOH HS-GC", "setting": "[2]; [7]", "value": 1.0, "unit": "mol"}, {"measurement": "H2O KF", "setting": "[2]; [7]", "value": 2.2, "unit": "mol"}, {"measurement": "EtOH HS-GC", "setting": "[2]; [8]", "value": 1.3, "unit": "mol"}, {"measurement": "H2O KF", "setting": "[2]; [8]", "value": 1.5, "unit": "mol"}, {"measurement": "EtOH HS-GC", "setting": "[2]; [9]", "value": 1.9, "unit": "mol"}, {"measurement": "H2O KF", "setting": "[2]; [9]", "value": "0.6 mol and 0.5 mol"}, {"measurement": "EtOH HS-GC", "setting": "[2]; [10]", "value": 1.9, "unit": "mol"}, {"measurement": "H2O KF", "setting": "[2]; [10]", "value": 0.2, "unit": "mol"}, {"measurement": "EtOH HS-GC", "setting": "[2]; [11]", "value": 2.0, "unit": "mol"}, {"measurement": "EtOH NMR", "setting": "[2]; [11]", "value": 2.0, "unit": "mol"}, {"measurement": "H2O KF", "setting": "[2]; [11]", "value": 0.3, "unit": "mol"}]}
